Source: patent US20220047527A1, “FOOD-AND-DRINK COMPOSITION CONTAINING ASTAXANTHIN” (AstaReal Co., Ltd., priority 2016, published 2022)

Experiments:
[1] = tested on: human having a sense of fatigue; assay: VAS (Visual Analog Scale) analysis before/after mental and physical loads; format: in vivo; details: for VAS, Clear-headedness (FIG. 5) / VAS, Concentration (FIG. 5) / VAS, Feeling of body heaviness (FIG. 5) / VAS, Frustration (FIG. 5) / VAS, Mood (FIG. 5) / VAS, Motivation (FIG. 5): vs control group
Protocol: A placebo-controlled, randomized, double-blind, parallel-group study was employed for ingestion of the test food, and two groups, namely, the control group (placebo group) with ingestion of a capsule not containing astaxanthin and the astaxanthin group with ingestion of a capsule containing 6 mg of astaxanthin (120 mg of Haematococcus algae extract and 10 mg of tocotrienol mixture derived from palm oil) were compared through a double-blind method. For ingestion of the test food, the subjects were instructed to ingest one capsule twice daily (total 12 mg of astaxanthin (240 mg of Haematococcus algae extract and 20 mg of tocotrienol mixture derived from palm oil) in two capsules per day), one after breakfast (or after the first meal of the day if no breakfast was taken) and the other after dinner, with water or lukewarm water within 30 min of eating. The overall duration for ingestion was 8 weeks (12 weeks only for the OSA sleep analysis). The subjects were also instructed to record their test food ingestion, drinking, and exercise in a diary every day, from the first day to the last day of ingestion.
The assessment to the subjects consisted of seven questions: “Sense of Fatigue (“sense of fatigue caused by mental load” or “sense of fatigue caused by mental load and physical load”) (best sensation with no fatigue—worst sensation of being too tired to do anything)”, “Clear-headedness (very clear—very dull)”, “Concentration (able to concentrate very easily—unable to concentrate at all)”, “Motivation (highly motivated—totally unmotivated)”, “Mood (very happy—as depressed as I can be)”, “Frustration (not frustrated at all—very frustrated)”, and “Feeling of body heaviness (feeling my body is very light—feeling my body is very heavy)”. For each question, the subjects were instructed to draw a vertical line by intuition on a 100 mm horizontal line to indicate their condition at the time, with the far left end indicating the best condition and the far right end indicating the worst condition. A VAS score was derived by measuring with a ruler the distance from the far left end to the intersection with the vertical line. VAS analysis was performed five times in total in one day: in the morning of the day of assessment (before load application), after application of a physical load and a mental load, at the end of the assessment visit (after a rest period), after mental load application (calculation load; Uchida-Kraepelin test), and after a rest period after mental load application. To determine transient changes in fatigue, the load-induced change was calculated by subtracting the pre-load value from the values after mental load application, after a rest period after mental load application, after application of both loads, and after a rest period therefor. In addition, to determine the effect of test food ingestion alone, ingestion-induced change was calculated by subtracting the pre-load (pre-ingestion) value at week 0 from the pre-load value after 4-week ingestion and after 8-week ingestion.

[2] = Study 2: temporal change of human blood (plasma) astaxanthin level on long-term ingestion; format: in vivo
Protocol: This study is a study in humans to confirm how the blood (plasma) astaxanthin level changes through long-term ingestion of astaxanthin. While the blood (serum) astaxanthin level was measured at the completion of ingestion (after 12-week ingestion) in Study 1, Study 2 is, specifically, a study in humans to confirm how the blood (plasma) astaxanthin level behaves in the case that the period of ingestion is shorter than 12 weeks.
Ten healthy Japanese men and women at age of 20 years or older and younger than 50 years
Each subject ingested two capsules per day, each capsule containing 60 mg (6 mg in terms of the free form of astaxanthin) of Haematococcus algae extract and 270 mg of edible fat and oil, with water 30 minutes after breakfast (12 mg/day in terms of the free form of astaxanthin) for 42 days.
Blood sampling was performed one day, six days, 13 days, 20 days, 27 days, 34 days, and 42 days after the initiation of ingestion of the capsules to obtain the plasma. The plasma astaxanthin level was measured by using the method in [5-4] in Study 1 with HPLC.

[3] = tested on: salivary cortisol; assay: Measurement of salivary cortisol (CLIA); format: in vivo, human; details: for salivary cortisol concentration: after 8-week ingestion
Excerpt: Salivary cortisol, which was examined as a biochemical index for a mental load, is used as a stress marker because of simplicity of measurement due to the high correlation with blood cortisol, and known to be increased by an acute mental stress, for example, caused at making a speech in front of others or doing mental calculation or by continuous, high-intensity exercise. Because the salivary cortisol concentration is known to show circadian variation, being high in the morning and then declining as the night approaches, mental load application (calculation load; Uchida-Kraepelin test) was performed in the morning in this study. Salivary secretory immunoglobulin A (sIgA) is an antibody produced by B cells that inhibits the proliferation of pathogens on the mucosa of the oral cavity, airway, intestines, and other organs. It is known that reduction of sIgA in saliva is associated with the development of upper respiratory tract infection and that salivary sIgA concentration decreases under chronic stress and increases in a relaxed state.
Prior to saliva sampling, the subjects were instructed to brush their teeth and place a cotton swab (Salivette) in the mouth for 2 minutes without chewing to thoroughly soak the cotton swab with saliva. Saliva samples were collected twice, in the morning of the day of assessment (before load application) and after mental load application (calculation load; Uchida-Kraepelin test). Salivary cortisol concentration was measured with a competitive chemiluminescent immunoassay (CLIA) kit (Chemilumi ACS-E Cortisol II; Siemens Healthcare Diagnostics Inc.).

[4] = tested on: human having a sense of fatigue; assay: Cycling task on a bicycle ergometer, task performance with a physical load; format: in vivo; details: between the groups (FIG. 19)
Protocol: A physical load was applied by a cycling task on a bicycle ergometer. Specifically, the subjects were instructed to pedal for 30 min with a rotation rate of the pedal adjusted to maintain the heart rate at 120 to 130 HR for men and 110 to 120 HR for women. The magnitude of the load was set at a constant level of 80 W for men and 70 W for women. The distance cycled (km) in 30 min was measured, which was used as the task performance with a physical load.

[5] = after application of both loads, after 4-week ingestion, vs control group (FIG. 4)
[6] = after application of both loads, after 8-week ingestion, vs control group (FIG. 4)
[7] = after application of both loads
[8] = after the rest period (after both loads), after 4-week ingestion, vs control group (FIG. 4)
[9] = after the rest period (after both loads), after 8-week ingestion, vs control group (FIG. 4)
[10] = after the rest period (after both loads)
[11] = 2 capsules/day (12 mg/day free form) for 42 days (FIG. 20)

human blood (plasma) astaxanthin level at plateau [2, 11]: approximately 200 ng/mL
time after initiation of ingestion at which plasma astaxanthin level plateaued [2, 11]: about six
human blood (plasma) astaxanthin level during continued ingestion ([2]; as long as ingestion of astaxanthin-containing food was continued): not lowered
SMILES: CC1=C(/C=C/C(C)=C/C=C/C(C)=C/C=C/C=C(C)/C=C/C=C(C)/C=C/C2=C(C)C(=O)C(O)CC2(C)C)C(C)(C)CC(O)C1=O (stereo not drawn) [astaxanthin, 3,3′-dihydroxy-β,β-carotene-4,4′-dione]
VAS load-induced change, Clear-headedness [1, 5]: marginally significant improvement and enhancement
VAS load-induced change, Mood [1, 5]: significant improvement
VAS load-induced change, Clear-headedness [1, 6]: marginally significant improvement and enhancement
VAS load-induced change, Concentration [1, 6]: marginally significant improvement and enhancement
VAS load-induced change, Feeling of body heaviness [1, 6]: significant improvement
VAS load-induced change, Mood [1, 6]: marginally significant improvement
VAS load-induced change, Motivation [1, 6]: marginally significant enhancement
VAS, Clear-headedness (FIG. 5) [1, 7]: marginally significant improvement
VAS, Concentration (FIG. 5) [1, 7]: marginally significant improvement
VAS, Feeling of body heaviness (FIG. 5) [1, 7]: significant improvement
VAS, Frustration (FIG. 5) [1, 7]: resolution of frustration
VAS, Mood (FIG. 5) [1, 7]: marginally significant improvement
VAS, Motivation (FIG. 5) [1, 7]: marginally significant improvement
VAS load-induced change, Frustration ([1]; after mental load application, after 8-week ingestion, vs control group (FIG. 4)): significant improvement
VAS, Clear-headedness (FIG. 5) ([1]; after mental load application): improvement
VAS, Concentration (FIG. 5) ([1]; after mental load application): improvement
VAS, Feeling of body heaviness (FIG. 5) ([1]; after mental load application): reduction of feeling of body heaviness
VAS, Frustration (FIG. 5) ([1]; after mental load application): significant improvement
VAS, Mood (FIG. 5) ([1]; after mental load application): improvement
VAS, Motivation (FIG. 5) ([1]; after mental load application): improvement
VAS load-induced change, Clear-headedness [1, 8]: marginally significant improvement and enhancement
VAS load-induced change, Mood [1, 8]: marginally significant improvement
VAS load-induced change, Clear-headedness [1, 9]: marginally significant improvement and enhancement
VAS load-induced change, Concentration [1, 9]: marginally significant improvement and enhancement
VAS load-induced change, Feeling of body heaviness [1, 9]: marginally significant improvement
VAS load-induced change, Frustration [1, 9]: significant improvement
VAS, Clear-headedness (FIG. 5) [1, 10]: marginally significant improvement
VAS, Concentration (FIG. 5) [1, 10]: marginally significant improvement
VAS, Feeling of body heaviness (FIG. 5) [1, 10]: marginally significant improvement
VAS, Frustration (FIG. 5) [1, 10]: significant improvement
VAS, Mood (FIG. 5) [1, 10]: improvement
VAS, Motivation (FIG. 5) [1, 10]: improvement
salivary cortisol concentration after vs before mental load application ([3]; after 4-week ingestion (FIG. 7)): significantly lower
salivary cortisol concentration ([3]; after mental load application): 0.38 ± 0.03 µg/dL
salivary cortisol concentration ([3]; before mental load application): 0.44 ± 0.03 µg/dL
cycling distance ([4]; after 4-week ingestion): no significant difference
cycling distance ([4]; after 8-week ingestion): no significant difference
